Measured values reported in paper PMC12704579, “New Anticancer 4‐Aryldihydropyrimidinone‐5‐Carboxylates Targeting Hsp90” (Chemical Biology & Drug Design, 2025).

What was measured:
[1] = CellTiter-Blue cell viability assay, HEK-293 (24 h); type: cell-based, human; details: human, HEK-293 cells, CellTiter-Blue, 24 h incubation, 10 μM test compound, standardised to DMSO control
Experimental: (§1) Human Embryonic Kidney cells (HEK‐293) and human breast cancer cells (MCF‐7, MDA‐MB‐231 and HCC1954) were cultured in complete growth media: […] 1X (Gibco); 10% v/v Fetal Bovine Serum (FBS, Sigma Dorset UK) and L‐glutamine (2 mM, Invitrogen). SW‐480‐WT cells were maintained in selective media made up of Dulbecco's Modified Eagle Medium (Gibco), enriched with […] of Geneticin Selective Antibiotic (G418 Sulfate; Gibco, Thermo Fisher). Cells were incubated at a 5% CO2 atmosphere at 37°C.
(§2) Cells were cultured in 96‐well plates in 90 μL at a seeding density of 1 × 10^6 cells per well. Compound samples were prepared at different concentrations (1 mM, 100 μM, 10 μM, 1 μM, 100 nM, 10 nM) and 10 μL of each concentration was seeded in each well. Two different negative controls were used: DMSO 0.01% and 0.001%. Paclitaxel (30% w/v) was used as a positive control. Cells were treated for 24 h after which 20 μL of CellTitre‐Blue reagent (Promega, Southampton, UK) was added and incubated for 2 h at 37°C in 5% CO2. Fluorescence was measured at 560/590 nm on a Fluorostar Optima plate reader (BMG Labtech, Bucks, UK). Assay end points were normalised to 0% (DMSO only) and fitted to a semilog plot using at least n = 3 technical replicates (n = 6 for DMSO control and paclitaxel control) and N = 3 independent replicates. The curve fit was performed using the GraphPad Prism software and the standard Hill equation.
(§3) In view of previous reports on Hsp90 inhibitors and their effects on cancer cell viability (Eachkoti et al. [2014]) and clonogenicity (Kinzel et al. [2016]), new compounds were tested for inhibition of cell viability within both non‐tumourigenic (HEK‐293) and breast cancer cell lines (MDA‐MB‐231) at a fixed concentration of 10 μM. The well‐established CellTiter‐Blue endpoint assay was used to assess cell viability. New compounds were also assessed in a colony forming assay (MCF‐7 breast cancer cell line), used as an efficacy screening to provide an indication of the inhibition of clonogenicity for these small molecules (Table 1).

HEK-293 cells = test: as above; type: cell-based, human; details: for GI50: Homo sapiens, HEK293, 24 h incubation time
Experimental: as §1, §2, §3

MDA-MB-231 cells = test: CellTiter-Blue cell viability assay, MDA-MB-231 (24 h); type: cell-based, human; details: for GI50 / viability at 10 µM: Homo sapiens, MDA-MB-231, 24 h; for GI50: 24 h incubation time
Experimental: as §1, §2, §3

[2] = target: T1, Recombinant human Hsp90 alpha protein (Homo sapiens, UniProt P07900); test: Transcreener ADP FP Hsp90 ATPase assay; type: biochemical; details: Recombinant human HSP90, 100 μM ATP; read-out: ATPase assay on rh-Hsp90 IC50
T1 construct: human full‐length protein, expressed in Escherichia coli; His tag (C); purchased Abcam ab80369; host or cells: Escherichia coli
Experimental: Transcreener ADP (cat. no. 3004‐1K) and ADP2 (cat. no. 3010‐1K) FP assay kits were obtained from Bellbrook Laboratories. Recombinant human Hsp90 alpha protein (active), human full‐length protein, expressed in Escherichia coli with > 90% purity and C‐terminus His tag, was purchased from Abcam (ab80369). All FP assays were carried out in black, 384‐well, low‐volume, polystyrene nonbinding microplates from Corning Life Sciences. All basic buffer components were obtained from Sigma‐Aldrich Chemical Co. 17‐AAG (Figure 1) was obtained from Abcam. Using the Transcreener ADP FP kit, the conditions for the recombinant human Hsp90 ATPase reaction were 50 mM HEPES (pH 7.4), 20 mM KCl, 2 mM EGTA, 4 mM MgCl2, and 0.01% Brij‐35 in a 10‐μL total assay volume. The final assay concentration of ATP was 100 μM for Hsp90. Due to the relatively low level of ATPase activity compared with other enzymes, the plate was incubated at 37°C and run over 1, 2 and 3 h time points. The reaction was stopped, and the ADP was detected by adding 10 μL of 50 mM HEPES (pH 7.4), 400 mM NaCl, 20 mM EDTA, 0.01% Brij35, 75 μg/mL anti‐ADP monoclonal antibody, and 4 nM ADP far red tracer. The plate was sealed, centrifuged at 600 g for 1 min, and left at room temperature for 1 h. FP readings for the Hsp90 ATPase Transcreener assays were performed on a Clariostar plate reader ([…]). A blank mP signal composed of protein, antibody, labelled ADP, but no ATP substrate gave similar mP values to those seen in the no‐protein controls. The upper limit of the assay window was defined by a no‐protein control, and the mP in the presence of heat shock protein was subtracted from this control to generate a change in polarisation (ΔmP), which was plotted on the activity graphs. Therefore, the data take into account the spontaneous hydrolysis of ATP. Each value is the mean of triplicate determinations with standard deviations (SD) shown. IC50 values were calculated using GraphPad Prism software with the nonlinear regression curve fitted to the log (inhibitor concentration) against the raw mP values on the linear portion of the standard curve.

[3] = Human microsomal stability (Cyprotex); type: in vitro ADME; details: human microsomes; for microsomal CLint: read-out: Metabolic stability (human microsomes) CLint; for half-life: read-out: Metabolic stability (human microsomes) Half-life
Experimental: All the selected analogues were calculated to be compliant with the Lipinski rule‐of‐five guidelines for oral bioavailability. Furthermore, in vitro ADME (absorption, distribution, metabolism, excretion) properties were assessed as an outsourced service (Cyprotex Discovery Ltd., UK; part of the EvoTec Group); profiling membrane permeability (Caco‐2 cell model), hERG channel cardiotoxicity, human microsomal stability and turbidometric solubility (Table 4).

[4] = tested on: HCC1954, MCF-7 and HEK-293 cells; test: Growth inhibition assay (CellTitre-Blue endpoint), 72 h incubation; type: cell-based, human; details: paclitaxel positive control, Figure 3
Experimental: as §2, with “equation. […]” for “equation.”
FIGURE 3 Growth inhibition assay (CellTitre‐Blue endpoint) in human breast cancer cell lines HCC1954 and MCF‐7, and non‐tumorigenic HEK‐293 cells for hit compounds 5d and 5e (72 h incubation). Growth inhibition is represented by the percentage of relative fluorescence units standardised to DMSO control. […]

[5] = CellTiter-Blue, 24 h incubation, 10 μM test compound, standardised to DMSO control, 10 µM
[6] = CellTiter-Blue, 24 h incubation, 10 μM test compound, standardised to DMSO control

**Q.** Which results are given for `COc1ccc(COC(=O)C2=C(C)NC(=O)NC2c2ccc(Cl)cc2)cc1C` (stereo not drawn) [Compound 5e, 4‐Methoxy‐3‐Methylbenzyl‐4‐(4‐Chlorophenyl)‐6‐Methyl‐2‐Oxo‐1,2,3,4‐Tetrahydropyrimidine‐5‐Carboxylate]?
**A.** viability at 24 h, 10 µM [1]: 82%; % Viability (HEK-293, 10 μM) (HEK-293 cells; [5]): 82.07 ± 1.28%; GI50 (HEK-293 cells): 86.3 µM; % Viability (MDA-MB-231, 10 μM) (MDA-MB-231 cells; [5]): 79.43 ± 8.8%; GI50 (MDA-MB-231 cells): 12.6 µM; viability at 10 µM (MDA-MB-231 cells; [6]): < 80%; IC50 [2]: 6.4 µM; microsomal CLint [3]: 108 µL/min/mg; half-life [3]: 12.8 min; Growth inhibitory effect / effect on cell viability, longer incubation [4]: comparable to the cytotoxic drug control paclitaxel

**Q.** For `COc1ccc(C2NC(=O)NC(C)=C2C(=O)OCc2ccc3c(c2)OCO3)c(F)c1` (stereo not drawn) [Compound 5d, Benzo[d][1,3]dioxol‐5‐ylmethyl‐4‐(2‐Fluoro‐4‐Methoxyphenyl)‐6‐Methyl‐2‐Oxo‐1,2,3,4‐Tetrahydropyrimidine‐5‐Carboxylate], which viability at 24 h, 10 µM [1] is on record?
**A.** 99.9 ± 4.53%

**Q.** And the GI50 (HEK-293 cells)?
**A.** 92.4 µM

**Q.** What about the GI50 (MDA-MB-231 cells) of the same compound?
**A.** 79.3 µM

**Q.** And the viability at 10 µM (MDA-MB-231 cells; [6])?
**A.** 86.3 ± 3.8%

**Q.** And the IC50 [2]?
**A.** 3.25 µM

**Q.** What about the microsomal CLint [3] of the same compound?
**A.** 34.6 µL/min/mg

**Q.** And the half-life [3]?
**A.** 40.1 min

**Q.** What about the “Growth inhibitory effect / effect on cell viability, longer incubation” value [4] of the same compound?
**A.** devoid of significant effects on cell viability
